Test results reported in US5482954A, “Signal transduction inhibitor triazole and diazole compounds” (priority 1994, dated 1996).
Like-named read-outs stand apart in the source and are kept apart here.

Experiments:
[1] = tested on: A2058 cells; assay: Proliferation of A2058 cells (monolayer growth, crystal violet); assay type: cell-based, human; details: for activity at 10 µM: Homo sapiens, read-out: GROWTH (% OF CONTROL)
Protocol: For the clonogenic assay, aliquots of 50,000 cells per well (24 well plates) were grown under standard tissue culture conditions in the presence of increasing doses or test compound (0-10 μg/mL) or vehicle control. After 96 hr, the cells were gently washed with PBS, fixed, and stained with 0.5% crystal violet nuclear stain in 20% methanol. Excess stain was removed with tap water and bound stain was eluted with an equal volume solution of 01N sodium citrate (pH 4.2) and absolute ethanol. Optical density (O.D.) of eluted crystal violet stain was determined at 540 nm. The results of dose-dependent inhibition of tumor cell proliferation by compound 1 are shown in FIG. 5, in which the data are expressed as percent of untreated control cell proliferation for each cell type. The degree of inhibition varied with the cell type and was maximal (76%) for the A2058 cell line.
A2058 human melanoma cells were used to test the effect of compounds 1 and 3-25 on cellular proliferation. The cells were cultured in the presence of the test compounds (10 μM) for 96 hr. fixed and stained with crystal violet as described above. Growth inhibition was determined as a percent of control growth (using either DMSO or PEG-400 as the vehicle) for each compound. Each experiment was run a minimum of three times and the average of the results for each compound is provided in Table H and in FIGS. 20A and 20B.

[2] = tested on: A2058 cells; assay: Colony formation (soft agar); assay type: cell-based, human; details: for COLONY FORMATION (% OF CONTROL): Table H, soft agar; for Colony Formation (% of Control): Table K
Protocol: Colony formation: Compound 1 was evaluated at three concentrations for inhibition of colony formation in both the A2058 and OVCAR3 cell lines. Colony number was determined in triplicate and compared to the vehicle control run on each 24 well plate to provide a percent. Colonies greater than 60 cells were counted at 100× under phase contrast. […] In a second study, selected compounds were evaluated for their effect on density-independent growth of the A2058 cell line in soft agar. Percent inhibition was determined over triplicate experiments involving three log molar concentrations of the test compound.

[3] = tested on: CHOm5 cells; assay: Carbachol-stimulated arachidonic acid release; assay type: cell-based, Chinese hamster; details: Table K
Source text: This example illustrates the effect of selected compounds on the release of arachidonic acid from carbachol-stimulated CHOm5 cells. Carbachol is a muscarinic agonist which in the muscarinic receptor transfected CHO cells stimulates the activation of phospholipase A2, resulting in arachidonic acid release and metabolism. Downstream metabolites of arachidonic acid, prostaglandins and leukotrienes are also second messengers.
The effect of compound 1 on arachidonic acid release from CHOm5 cells was determined by incubating the cells to isotopic equilibrium with labelled arachidonic acid, then washing the cells twice with 1 mL of serum-free media supplemented with 20 mM HEPES and 0.2% bovine serum albumin (fatty acid free) to trap the unincorporated labelled arachidonic acid, and then simultaneously adding carbachol (100 μM) and increasing concentrations of 1. After 15 min, the reaction was stopped by removing the incubation media which was then centrifuged at 10,000×g to eliminate any nonadherent cells.

[4] = tested on: CHOm5 cells; assay: Carbachol-stimulated 45Ca2+ influx; assay type: cell-based, Chinese hamster; design: % Inhibition of 45Ca2+ Influx into CHOm5 Cells: concentration or dose not given beside the values; details: Table I; carbachol-stimulated
Protocol: (§1) Calcium influx was determined using two methods. The first method involved the use of ^45 Ca^2+, while the second method utilized a fluorescent intracellular calcium chelator, Fura-2. The method using Fura-2 is semi-quantitative and is preferred for kinetic analysis and screening whereas the ^45 Ca^2+ method is quantitative.
CHOm5 cells in monolayer culture were washed free of serum-containing media and incubated with either carbachol or the calcium ionophore A23187 (from Molecular Probes, Eugene, Oreg., USA) in the presence of ^45 Ca^2+ and defined buffer (E2 medium with 0.1 mM MgCl2 and 1.0 mM CaCl2). After incubation for 5 min, the radioactive buffer was rapidly and repeatedly washed off with media containing LaCl3, a competitor of calcium efflux. The cell monolayer was solubilized and the calcium uptake was determined by scintillation counting.
Stimulated uptake of radiolabelled calcium was measured as described above. The abbreviations CTL and CC are control and carbachol-stimulated calcium influx values. respectively.

[5] = tested on: A2058 cells; assay: Ca2+ influx (receptor-operated); assay type: cell-based, human
Protocol: as §1
Additionally, CHOm5 cells and A2058-1F5 human melanoma cells adherent to glass coverslips, which had been precoated with collagen or poly-L lysine to promote adhesion, were loaded with the fluorescent intracellular calcium chelator, fura-2AM. This chelator penetrates cells where it is hydrolyzed to fura-2 which remains trapped in the cells. Excess fura-2AM is washed off the cells. Cells are studied in serum-free E2 media, containing known amounts of calcium and magnesium. The cells are subjected to treatment with carbachol (10 μM) with or without compounds 1 and 2, and with appropriate vehicle controls (DMSO or PEG-400) in a perifusion apparatus. This ligand is known to stimulate intracellular release of calcium and influx of extracellular calcium. Emitted light is measured at 510 nm after excitation at 340 and 380 nm, with the ratio of fluorescence of fura-2 being directly correlated with intracellular calcium concentrations.
Stimulated uptake of radiolabelled calcium was measured as described above. […]

[6] = tested on: 5R ras-transfected rat embryo fibroblast cell line; assay: Experimental pulmonary metastasis, tumor cells pretreated in vitro; assay type: in vivo, nude mice; details: cells treated overnight, 1-10 μM; 10 d
Protocol: This example illustrates the effect of selected compounds on the development of experimental pulmonary metastases, when the tumor cells are first incubated with the compound in vitro and subsequently injected into the tail vein of nude mice. In this example, both the 5R ras-transfected rat embryo fibroblast cell line and the HT-29 human colon cancer cell line were evaluated.
The 5R ras-transfected rat embryo fibroblast cell line forms confluent pulmonary metastases within 2-3 weeks after inoculation. For the experimental metastasis assay, 5R cells were treated in culture overnight with the test compounds (1-10 μM). After culture, the cells were harvested, washed and injected into the tail vein of six-week old nude mice. After 10 d, the mice were humanely sacrificed and the lungs were removed and fixed in Bouin's solution. The visible pulmonary metastases were counted.

[7] = tested on: signal transduction and tumor growth; assay: Biological and biochemical assays, summary; assay type: cell-based; details: summary of all assays
Source text: Compound 1 was inhibitory for the biological and biochemical assays.

[8] = tested on: RMCE in platelets; details: Merritt, et al.; cited from earlier work
[9] = tested on: RMCE in endothelial cells; details: Merritt, et al.; cited from earlier work
[10] = tested on: RMCE in neutrophils; details: Merritt, et al.; cited from earlier work
[11] = tested on: voltage-gated L-type calcium channels in vascular smooth muscle cells; details: patch clamp; Merritt, et al.; cited from earlier work
[12] = tested on: 5R ras-transfected rat embryo fibroblasts; assay: AMF-stimulated cell motility; assay type: cell-based; details: PT, 0.5 μg/ml for 2 hr
Protocol: (§2) The cell motility assay has been described. See, Stracke et al., Biochem. Biophys. Res. Comm., 146:339-345 (1987). Cells from the A2058 human melanoma line which was maintained in subconfluent culture were harvested with trypsin-EDTA, and were allowed to recover for 1 hr at room temperature. Cells from the 5R H-ras transformed (diploid) rat embryo fibroblast line were harvested with 2 mM EDTA in PBS without divalent cations. Cells were resuspended in serum-free media containing 0.1% BSA. This DMEM/0.1% BSA was used as the control for all subsequent assays. The assays were performed in triplicate using a 48-well chemotaxis chamber with 8μ Nucleopore, type IV collagen-coated filters. The chambers were incubated at 37° C. for 4 hr, stained and placed onto glass slides with the original cell side up so that the cell pellet could be wiped from the surface. Cells that had migrated through the pores were trapped between glass and membrane and could be quantitated by laser densitometry.
(§3) Compound 1 was preincubated with the cells for various periods of time, added at the start of the assay, or added later. Additionally, compound 1 remained present during the motility assay. The cells were assayed for their motile response to AMF. AMF stimulates random and directed locomotion of 5R ras-transfected rat embryo fibroblasts and A2058 human melanoma cells. […] Cell viability determined by trypan blue exclusion averaged greater than 96%. Cells exposed to various concentrations of compound 1 were tested for their response to AMF vs. control. Percent stimulated motility (in densitometer units) is defined as: […]
(§4) (AMF stimulated-control)Compound 1 /(AMF stimulated-control)untreated

[13] = tested on: A2058 human melanoma cells; assay: AMF-stimulated cell motility; assay type: cell-based; details: PT, 0.5 μg/ml for 2 hr
Protocol: as §2, §3, §4

| Compound | activity at 10 µM ([1]; A2058, Table H, 10 μM, 96 hr) [%] | COLONY FORMATION (% OF CONTROL) [2] [% OF CONTROL] | also measured |
| --- | --- | --- | --- |
| NC(=O)c1nnn(Cc2ccc(C(=O)c3ccccc3)cc2)c1N [Compound 8] | 92.7 ± 9 | 93.4 ± 3 | Colony Formation (% of Control) [2]: 93.4 ± 3 % of Control; Arachidonic Acid Release (% of Control) [3]: 100 ± 15 % of Control; % Inhibition of 45Ca2+ Influx into CHOm5 Cells [4]: 0%; inhibition of stimulated changes in intracellular calcium [5]: failed to inhibit; inhibition of pulmonary colonization [6]: 14%; inhibition in the biological and biochemical assays [7]: did not inhibit any of the test assays |
| NC(=O)c1nnn(Cc2cc(F)cc(F)c2)c1N [Compound 16] | 111 ± 8 |  |  |
| O=C(c1ccccc1)c1ccc(Cl)cc1 [Compound 19] | 110 ± 12 | 94.3 ± 3.1 |  |
| O=C(c1ccc(Cl)cc1)c1c(Cl)cc(Cn2ccnc2)cc1Cl [Compound 7] | 66.5 ± 9 |  | Arachidonic Acid Release (% of Control) [3]: 92.6 ± 7 % of Control |
| O=C(c1ccccc1)c1ccccc1Cl [Compound 21] | 123 ± 5 | 100 ± 5 |  |
| O=C(c1ccccc1)c1ccc(F)cc1 [Compound 18] | 94 ± 2 | 93.0 ± 3.7 |  |
| O=C(c1ccc(Cl)cc1)c1c(Cl)cc(CO)cc1Cl [Compound 26] | 101 ± 11 | 100.3 ± 1.2 | % Inhibition of 45Ca2+ Influx into CHOm5 Cells [4]: ~ 10% |
| NC(=O)c1nnn(Cc2cccc(F)c2)c1N [Compound 11] | 89 ± 3 |  |  |
| COc1ccc(CCCOC(Cn2ccnc2)c2ccc(OC)cc2)cc1 (stereo not shown) [Compound 2] |  |  | inhibition of RMCE [8]: inhibits RMCE; inhibition of RMCE [9]: inhibits RMCE; inhibition of RMCE [10]: inhibits RMCE; block of voltage-gated L-type calcium channels [11]: blocks |
| O=C(O)c1nn[nH]c1C(=O)O [Compound 10] | 92.2 ± 4 | 100 ± 3 |  |
| O=C(c1ccc(F)cc1)c1ccccc1Cl [Compound 23] | 101 ± 0.5 | 97.8 ± 5 |  |
| NC(=O)c1nnn(Cc2cccc(Cl)c2)c1N [Compound 12] | 85 ± 2 |  |  |
| O=C(c1ccccc1)c1ccccc1 [Compound 17] |  | 95.9 ± 3 | activity at 10 µM ([1]; A2058, 96 h): 98.5 ± 5% |
| O=C(c1ccccc1O)c1ccccc1O [Compound 25] | 98 ± 7 | 95.3 ± 2 |  |
| NC(=O)c1nnn(Cc2cc(Cl)c(C(=O)c3ccc(Cl)cc3)c(Cl)c2)c1NC(=O)c1ccccc1 [Compound 5] | 39 ± 2 | 9.97 ± 1 | Colony Formation (% of Control) [2]: 9.97 ± 1 % of Control; Arachidonic Acid Release (% of Control) [3]: 49.2 ± 12 % of Control; % Inhibition of 45Ca2+ Influx into CHOm5 Cells [4]: 61% |
| NC(=O)c1nnn(Cc2cc(Cl)c(C(=O)c3ccc(Cl)cc3)c(Cl)c2)c1NC=O [Compound 3] | 31.5 ± 7 | 10.2 ± 0.5 | dose dependent inhibition of proliferation ([1]; FIG. 20A, monolayer growth): Dose dependent inhibition of proliferation; Colony Formation (% of Control) [2]: 10.2 ± 0.5 % of Control; Arachidonic Acid Release (% of Control) [3]: 13.1 ± 3 % of Control; % Inhibition of 45Ca2+ Influx into CHOm5 Cells [4]: 60% |
| NC(=O)c1nnn(Cc2cccc(Br)c2)c1N [Compound 13] | 85.5 ± 13 |  |  |
| O=C(c1ccccc1)c1ccc(Br)cc1 [Compound 20] | 97 ± 24 | 95.0 ± 1.4 |  |
| NC(=O)c1nc[nH]c1N [Compound 9] | 97 ± 3 |  |  |
| O=C(c1ccc(F)cc1)c1ccccc1F [Compound 24] | 82 ± 7 |  |  |
| NC(=O)c1nnn(Cc2cccc(I)c2)c1N [Compound 14] | 89 ± 6 |  |  |
| pertussis toxin [reference compound] |  |  | inhibition of AMF-stimulated motility by pertussis toxin [12]: markedly inhibited; inhibition of AMF-stimulated motility by pertussis toxin [13]: markedly inhibited |
| CC(=O)Nc1c(C(N)=O)nnn1Cc1cc(Cl)c(C(=O)c2ccc(Cl)cc2)c(Cl)c1 [Compound 4] | 53.7 ± 15 | 10.3 ± 0.4 | Colony Formation (% of Control) [2]: 10.3 ± 0.4 % of Control; Arachidonic Acid Release (% of Control) [3]: 73.8 ± 5.9 % of Control; % Inhibition of 45Ca2+ Influx into CHOm5 Cells [4]: 41% |
| Nc1c(C(=O)O)nnn1Cc1cc(Cl)c(C(=O)c2ccc(Cl)cc2)c(Cl)c1 [Compound 6] | 45.3 ± 11 | 9.00 ± 1 | Colony Formation (% of Control) [2]: 9.00 ± 1 % of Control; Arachidonic Acid Release (% of Control) [3]: 49.6 ± 5 % of Control; % Inhibition of 45Ca2+ Influx into CHOm5 Cells [4]: 38% |
| NC(=O)c1nnn(Cc2cc(Cl)cc(Cl)c2)c1N [Compound 15] |  |  | % Inhibition of 45Ca2+ Influx into CHOm5 Cells [4]: 0% |
